According to patent US12209079B2 (GENERAL INCORPORATED ASSOCIATION PHARMA VALLEY PROJECT …, priority 2017, dated 2025):

Assays:
[1] = target: T1, TDO in A172 cells (Homo sapiens, UniProt P48775); experiment: TDO cell-based assay, kynurenine production in A172 cells; details: A 172; final concentration of the compound 10 μM; rate relative to culture without compound
T1 construct: endogenous in cells; host or cells: A172 cells
Method in brief: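 A172 cells were preincubated with compound for 1 h, then given L-tryptophan (final 524 μM) for 24 h at 37 °C. Kynurenine was read at 460 nm after p-dimethylbenzaldehyde/TCA reagent, background-subtracted, and expressed as % of no-compound production.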

[2] = test system: subcutaneous CT-26WT syngeneic graft of large intestine cancer; experiment: Drug efficacy test, combined use of IDO/TDO inhibitor and oxaliplatin, mice with subcutaneous CT-26WT syngeneic graft (Test Example 5); format: in vivo, mouse; details: 40 mg/kg oral twice a day in 0.5% methyl cellulose, combined with oxaliplatin 10 mg/kg i.v.; Balb/c mice; FIG. 4
Procedure: Drug Efficacy Test on Combined Use of IDO/TDO Inhibitor and Oxaliplatin Using Mice with a Subcutaneous CT-26WT Syngeneic Graft of Large Intestine Cancer
5×10^5 cells of syngeneic large intestine cancer cell line CT26WT were subcutaneously transplanted to each of 6-week-old female Balb/c mice. The mice were divided into groups each involving 6 individuals 10 days later within a tumor size range of 41-427 mm^3. The oral administration (solvent for oral administration and 40 mg/kg each of epacadostat and compounds 37, 31, 7, 15, 1, 50, 52, 76, 95, 33, 49, 2, 10, 36, 103, 38 and 29 were administered twice a day at a 5-hour interval from days 1 to 5 and days 8 to 12) and intravenous injection (5% glucose solution and 10 mg/kg oxaliplatin were administered once a day on days 1 and 8) of each agent were started. Then, the major axis and minor axis of subcutaneous tumor were measured three times a week using calipers, and a mean and standard error of the mean of the ratios of the calculated volumes to the volumes at the administration start day in each group were plotted. The calculation expression was Volume (mm^3)=[[…]×Length (mm)]/2. The agent for oral administration was suspended in 0.5% methyl cellulose as a solvent for oral administration. The results are shown in FIG. 4 (if a plurality of experiments were conducted for the same agent, the results were combined).
• with the solid line: the solvent for oral administration and the 5% glucose solution, ▪ with the solid line: compound 37 and oxaliplatin, ▴ with the solid line: epacadostat and oxaliplatin, X with the solid line: compound 31 and oxaliplatin, ∘ with the solid line: the solvent for oral administration and oxaliplatin, □ with the solid line: compound 7 and oxaliplatin, Δ with the solid line: compound 15 and oxaliplatin, X with the solid line: compound 1 and oxaliplatin, • with the broken line: compound 50 and oxaliplatin, ▪ with the broken line: compound 52 and oxaliplatin, ▴ with the broken line: compound 76 and oxaliplatin, X with the broken line: compound 95 and oxaliplatin, ∘ with the broken line: compound 33 and oxaliplatin, □ with the broken line: compound 49 and oxaliplatin, Δ with the broken line: compound 2 and oxaliplatin, + with the solid line: compound 10 and oxaliplatin, rectangle with the solid line: compound 36 and oxaliplatin, • with the dotted line: compound 103 and oxaliplatin, ▪ with the dotted line: compound 38 and oxaliplatin, and ▴ with the dotted line: compound 29 and oxaliplatin.

[3] = test system: subcutaneous CT-26WT syngeneic graft of large intestine cancer; experiment: Drug efficacy test, combined use of compound 1, 15 or 29 and oxaliplatin, mice with subcutaneous CT-26WT syngeneic graft (Test Example 4); format: in vivo, mouse; details: 40 mg/kg oral twice a day, combined with oxaliplatin 10 mg/kg i.v.; Balb/c mice; FIG. 3
Procedure: Drug Efficacy Test on Combined Use of Compound 1, Compound 15 or Compound 29 and Oxaliplatin Using Mice with Subcutaneous CT-26WT Syngeneic Graft of Large Intestine Cancer
5×10^5 cells of syngeneic large intestine cancer cell line CT26WT were subcutaneously transplanted to each of 6-week-old female Balb/c mice. The mice were divided into 5 groups each involving 6 individuals 10 days later when the average tumor size was 139 mm^3. The oral administration (solvent for oral administration and 40 mg/kg each of compound 1, compound 15 and compound 29 were administered twice a day at a 5-hour interval from days 1 to 5 and days 8 to 12) and intravenous injection (5% glucose solution and 10 mg/kg oxaliplatin were administered once a day on days 1 and 8) of each agent were started. Then, the major axis and minor axis of subcutaneous tumor were measured three times a week using calipers, and a mean and standard error of the mean of the ratios of the calculated volumes to the volumes at the administration start day in each group were plotted. The calculation expression was Volume (mm^3)=[Width^2 (mm^2)×Length (mm)]/2. The solvent group, compound 1 and compound 15 were each dissolved in a solvent for oral administration of DMSO:PEG400:PBS=10:40:150, and compound 29 was dissolved in a solvent for oral administration of DMSO:PEG400:PBS=20:80:50.
∘: the solvent for oral administration and the 5% glucose solution, •: the solvent for oral administration and oxaliplatin, ▴: compound 1 and oxaliplatin, ▪: compound 15 and oxaliplatin, and x: compound 29 and oxaliplatin.

T1 sequence (P48775 whole entry): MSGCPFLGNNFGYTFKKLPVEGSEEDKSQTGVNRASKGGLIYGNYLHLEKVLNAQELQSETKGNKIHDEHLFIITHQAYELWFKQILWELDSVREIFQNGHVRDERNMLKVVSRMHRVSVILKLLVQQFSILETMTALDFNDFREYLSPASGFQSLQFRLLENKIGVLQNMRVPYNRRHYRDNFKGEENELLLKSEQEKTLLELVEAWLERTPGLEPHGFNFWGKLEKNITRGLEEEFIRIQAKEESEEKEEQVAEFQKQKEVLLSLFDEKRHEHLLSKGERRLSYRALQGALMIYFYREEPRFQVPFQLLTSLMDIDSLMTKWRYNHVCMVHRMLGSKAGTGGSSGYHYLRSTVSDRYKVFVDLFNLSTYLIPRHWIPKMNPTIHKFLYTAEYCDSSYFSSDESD

| remaining activity at 10 µM [1] [%] | SMILES | tumor growth (ratio of tumor volume to start day) [2] | tumor growth (ratio of tumor volume to start day) [3] |
| --- | --- | --- | --- |
| 7 | Br.Br.N=C(N)SCc1ccc(F)cc1CSC(=N)N [Compound 2, (4-fluoro-1,2-phenylene)bis(methylene) dicarbamimidothioate dihydrobromide] | can suppress tumor growth |  |
| -1 | Br.Br.N=C(N)SCc1ccc(Cl)cc1CSC(=N)N [Compound 7, (4-chloro-1,2-phenylene)bis(methylene) dicarbamimidothioate dihydrobromide] | can suppress tumor growth |  |
| 20 | Br.Br.N=C(N)SCc1ccsc1CSC(=N)N [Compound 31, thiophene-2,3-diylbis(methylene) dicarbamimidothioate dihydrobromide] | can suppress tumor growth |  |
| 7 | Br.Br.N=C(N)SCc1cscc1CSC(=N)N [Compound 15, thiophene-3,4-diylbis(methylene) dicarbamimidothioate dihydrobromide] | can suppress tumor growth | can suppress tumor growth |
| -7 | Br.Br.N/C(=N\c1ccc(F)cc1F)SCc1ccccc1CS/C(N)=N/c1ccc(F)cc1F [Compound 95, 1,2-Phenylenebis(methylene) (E,E)-bis(N-(2,4-difluorophenyl)carbamimidothioate)dihydrobromide] | can suppress tumor growth |  |
| -3 | Cl.Cl.N=C(N)SCc1ccccc1CSC(=N)N [Compound 1, 1,2-phenylenebis(methylene) dicarbamimidothioate dihydrochloride] | can suppress tumor growth | can suppress tumor growth |
| 4 | Clc1cc(CSC2=NCN(CC3CCCCC3)CN2)c(CSC2=NCN(CC3CCCCC3)CN2)cc1Cl [Compound 50, 6,6′-(((4,5-Dichloro-1,2-phenylene)bis(methylene))bis(sulfanediyl))bis(3-(cyclohexylmethyl)-1,2,3,4-tetrahydro-1,3,5-triazine)] | can suppress tumor growth |  |
| 5 | Brc1ccc(CSC2=NCN(CC3CCCCC3)CN2)c(CSC2=NCN(CC3CCCCC3)CN2)c1 [Compound 52, 6,6′-(((4-Bromo-1,2-phenylene)bis(methylene))bis(sulfanediyl))bis(3-(cyclohexylmethyl)-1,2,3,4-tetrahydro-1,3,5-triazine)] | can suppress tumor growth |  |
| 2 | Br.Br.N=C(N)SCc1ccc(Br)cc1CSC(=N)N [Compound 10, (4-bromo-1,2-phenylene)bis(methylene) dicarbamimidothioate dihydrobromide] | can suppress tumor growth |  |
| 0 | c1ccc(CSC2=NCN(CC3CCCCC3)CN2)c(CSC2=NCN(CC3CCCCC3)CN2)c1 [Compound 29, 1,2-bis(((5-(cyclohexylmethyl)-1,4,5,6-tetrahydro-1,3,5-triazin-2-yl)thio)methyl)benzene] | can suppress tumor growth | can suppress tumor growth |
| 8 | N/C(=N\c1ccc(Br)cc1)SCc1ccc(Br)cc1CS/C(N)=N/c1ccc(Br)cc1 [Compound 49, (4-Bromo-1,2-phenylene)bis(methylene) (E,E)-bis(N′-(4-bromophenyl)carbamimidothioate)] | can suppress tumor growth |  |

| SMILES | remaining activity at 10 µM [1] [%] | tumor growth (ratio of tumor volume to start day) [2] | tumor growth (ratio of tumor volume to start day) [3] |
| --- | --- | --- | --- |
| Clc1cc(CSC2=NCN(CCc3ccccc3)CN2)c(CSC2=NCN(CCc3ccccc3)CN2)cc1Cl [Compound 37, 6,6′-(((4,5-Dichloro-1,2-phenylene)bis(methylene))bis(sulfanediyl))bis(3-phenethyl-1,2,3,4-tetrahydro-1,3,5-triazine)] | -9 | can suppress tumor growth |  |
| Br.N#Cc1ccc(CNC(=O)c2cc(Br)ccc2CSC(=N)N)cc1 [Compound 103, 4-Bromo-2-((4-cyanobenzyl)carbamoyl)benzyl carbamimidothioate hydrobromide] | 18 | can suppress tumor growth |  |
| Cl.Cl.c1ccc(CCN2CN=C(SCc3cscc3CSC3=NCN(CCc4ccccc4)CN3)NC2)cc1 [Compound 33, 3,4-Bis{[(5-phenethyl-1,4,5,6-tetrahydro-1,3,5-triazin-2-yl)thio]methyl}thiophene dihydrochloride] | 4 | can suppress tumor growth |  |
| Br.N#Cc1ccc(CNC(=O)c2ccc(Br)cc2CSC(=N)N)cc1 [Compound 76, 5-Bromo-2-((4-cyanobenzyl)carbamoyl)benzyl carbamimidothioate hydrobromide] | 24 | can suppress tumor growth |  |
